Laboratory results from PubChem BioAssay (NCI).
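Exposure lasted 48 hours, with cells grown in 96-well plates and compounds tested at five concentrations. TGI is the concentration that stops growth completely.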

How the values were obtained:
Test in all cases: NCI tumour cell line growth inhibition, 48 h
DLD-1 colon = tested on: DLD-1 colon
DMS 114 small cell lung = tested on: DMS 114 small cell lung
DMS 273 small cell lung = tested on: DMS 273 small cell lung
HCC-2998 colon = tested on: HCC-2998 colon
HOP-18 NSCLC = tested on: HOP-18 NSCLC
KM20L2 colon = tested on: KM20L2 colon
LOX IMVI melanoma = tested on: LOX IMVI melanoma
M19-MEL melanoma = tested on: M19-MEL melanoma
SNB-78 CNS = tested on: SNB-78 CNS
UACC-257 melanoma = tested on: UACC-257 melanoma
LXFL 529 NSCLC = tested on: LXFL 529 NSCLC
XF 498 CNS = tested on: XF 498 CNS
RXF-631 renal = tested on: RXF-631 renal

CC1OC(OC2C(OC(=O)[C@]34CCC(C)(C)CC3C3=CCC5[C@@]6(C)C[C@H](O)[C@H](OC7OC(CO)C(O)C(O)C7N)[C@@](C)(C(=O)O)C6CC[C@@]5(C)C3(C)CC4)OCC(O)C2O)C(O)C(O)C1OC1OCC(O)C(O)C1O (stereo partly drawn)
TGI (DLD-1 colon): > 100 µM
TGI (DMS 114 small cell lung): > 100 µM
TGI (DMS 273 small cell lung): > 100 µM
TGI (HCC-2998 colon): > 100 µM
TGI (HOP-18 NSCLC): > 100 µM
TGI (KM20L2 colon): > 100 µM
TGI (LOX IMVI melanoma): > 100 µM
TGI (M19-MEL melanoma): > 100 µM
TGI (SNB-78 CNS): > 100 µM
TGI (UACC-257 melanoma): > 100 µM

COc1ccc2c(c1)C(=O)Cc1ccccc1CC2
TGI (DLD-1 colon): > 100 µM
TGI (DMS 114 small cell lung): > 100 µM
TGI (DMS 273 small cell lung): > 100 µM
TGI (HCC-2998 colon): > 100 µM
TGI (HOP-18 NSCLC): > 100 µM
TGI (KM20L2 colon): > 100 µM
TGI (LOX IMVI melanoma): > 100 µM
TGI (LXFL 529 NSCLC): > 100 µM
TGI (M19-MEL melanoma): > 100 µM
TGI (SNB-78 CNS): > 100 µM
TGI (UACC-257 melanoma): > 100 µM
TGI (XF 498 CNS): > 100 µM

O=C1c2ccccc2C(=O)c2c1cc(S(=O)(=O)O)c(O)c2O
TGI (DLD-1 colon): > 100 µM
TGI (DMS 114 small cell lung): > 100 µM
TGI (HCC-2998 colon): > 100 µM
TGI (LOX IMVI melanoma): > 100 µM
TGI (LXFL 529 NSCLC): > 100 µM
TGI (M19-MEL melanoma): > 100 µM
TGI (RXF-631 renal): > 100 µM
TGI (SNB-78 CNS): > 100 µM
TGI (UACC-257 melanoma): > 100 µM
TGI (XF 498 CNS): 32.6 µM

O=C(NC12CC3CC(CC(F)(C3)C1)C2)c1ccccc1
TGI (DLD-1 colon): > 100 µM
TGI (DMS 114 small cell lung): > 100 µM
TGI (DMS 273 small cell lung): > 100 µM
TGI (HCC-2998 colon): > 100 µM
TGI (KM20L2 colon): > 100 µM
TGI (LOX IMVI melanoma): > 100 µM
TGI (LXFL 529 NSCLC): > 100 µM
TGI (M19-MEL melanoma): > 100 µM
TGI (SNB-78 CNS): > 100 µM
TGI (UACC-257 melanoma): > 100 µM
TGI (XF 498 CNS): > 100 µM

Cc1cccc(C(C)C)c1NC(=O)/C(Cc1c([N+](=O)[O-])cccc1[N+](=O)[O-])=N/NC(=O)CC#N
TGI (DLD-1 colon): > 100 µM
TGI (DMS 114 small cell lung): > 100 µM
TGI (DMS 273 small cell lung): > 100 µM
TGI (HCC-2998 colon): > 100 µM
TGI (HOP-18 NSCLC): > 100 µM
TGI (KM20L2 colon): > 100 µM
TGI (LOX IMVI melanoma): > 100 µM
TGI (LXFL 529 NSCLC): > 100 µM
TGI (M19-MEL melanoma): > 100 µM
TGI (RXF-631 renal): > 100 µM

NC(=S)N1N=C2c3ccccc3CC[C@@H]2[C@@H]1c1ccccc1
TGI (DLD-1 colon): > 86.4 µM
TGI (DMS 114 small cell lung): 8.01 µM
TGI (DMS 273 small cell lung): 20.7 µM
TGI (HCC-2998 colon): > 55.7 µM
TGI (HOP-18 NSCLC): > 100 µM
TGI (KM20L2 colon): 16.3 µM
TGI (LOX IMVI melanoma): 20.1 µM
TGI (LXFL 529 NSCLC): 97.6 µM
TGI (M19-MEL melanoma): 47.2 µM
TGI (RXF-631 renal): > 100 µM
TGI (SNB-78 CNS): > 82 µM
TGI (UACC-257 melanoma): 56.3 µM

O=C1NC(=O)C(CCC(=O)c2ccc3ccccc3c2)C(=O)N1
TGI (DLD-1 colon): > 100 µM
TGI (DMS 114 small cell lung): > 100 µM
TGI (DMS 273 small cell lung): > 100 µM
TGI (HCC-2998 colon): > 100 µM
TGI (HOP-18 NSCLC): > 100 µM
TGI (KM20L2 colon): > 100 µM
TGI (LOX IMVI melanoma): > 100 µM
TGI (LXFL 529 NSCLC): > 100 µM
TGI (M19-MEL melanoma): > 100 µM
TGI (RXF-631 renal): > 100 µM
TGI (SNB-78 CNS): > 100 µM
TGI (UACC-257 melanoma): > 100 µM
TGI (XF 498 CNS): > 100 µM
